In publication PMC10846046, “The mechanism of action of auranofin analogs in B. cenocepacia revealed by chemogenomic profiling” (Microbiology Spectrum, 2024):

How the values were obtained:
[1] = molecular target: T1, TrxB (thioredoxin reductase) (Burkholderia cenocepacia, UniProt B4EBR9); assay: DTNB reduction, absorbance at […] nm; assay type: biochemical
T1 construct: full gene in pET24b+, C-terminal 6xHis tag kept, E. coli BL21(DE3); Ni-NTA and size exclusion

[2] = molecular target: T2, GOR (glutathione reductase) (Burkholderia cenocepacia, UniProt B4E8M8); assay: NADPH consumption, absorbance at […] nm; assay type: biochemical; conditions: GSSG as electron acceptor
T2 construct: full gene in pET-22+, C-terminal 6xHis tag kept, E. coli BL21(DE3)-Gold; purified as TrxB
T2 sequence (B4E8M8 1-451): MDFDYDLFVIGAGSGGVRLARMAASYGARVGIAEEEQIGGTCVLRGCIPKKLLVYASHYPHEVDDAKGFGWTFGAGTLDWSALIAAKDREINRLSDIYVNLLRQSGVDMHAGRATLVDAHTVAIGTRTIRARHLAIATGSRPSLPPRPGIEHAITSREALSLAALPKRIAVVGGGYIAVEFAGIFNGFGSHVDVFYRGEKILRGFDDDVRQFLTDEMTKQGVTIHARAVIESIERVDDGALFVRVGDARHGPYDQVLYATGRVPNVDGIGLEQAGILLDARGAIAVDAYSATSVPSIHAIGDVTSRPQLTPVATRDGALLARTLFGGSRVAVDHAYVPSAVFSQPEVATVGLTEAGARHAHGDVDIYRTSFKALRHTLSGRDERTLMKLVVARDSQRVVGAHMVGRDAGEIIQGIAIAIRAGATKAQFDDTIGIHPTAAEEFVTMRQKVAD

T1 sequence (B4EBR9 1-320): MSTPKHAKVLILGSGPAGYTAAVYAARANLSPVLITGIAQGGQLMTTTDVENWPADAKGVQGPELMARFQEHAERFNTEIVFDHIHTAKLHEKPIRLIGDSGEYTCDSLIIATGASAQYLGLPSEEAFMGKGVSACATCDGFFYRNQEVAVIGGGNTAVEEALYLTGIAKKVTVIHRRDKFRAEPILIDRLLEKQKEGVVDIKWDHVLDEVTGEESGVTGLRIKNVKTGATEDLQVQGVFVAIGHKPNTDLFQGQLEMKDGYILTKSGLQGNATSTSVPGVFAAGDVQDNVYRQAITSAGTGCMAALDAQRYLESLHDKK

With `NC(=O)C1=CN([C@@H]2O[C@H](COP(=O)(O)OP(=O)(O)OC[C@H]3O[C@@H](n4cnc5c(N)ncnc54)[C@H](OP(=O)(O)O)[C@@H]3O)[C@@H](O)[C@H]2O)C=CC1` [NADPH] the “DTNB reduction, absorbance at 412 nm” value ([1]; DTNB as electron acceptor) was “in the presence of substrate DTNB is reduced to TNB, with NADPH as a source” and the “NADPH consumption, absorbance at 340 nm” value [2] was “oxidized glutathione is reduced to reduced glutathione, with NADPH as a source of electrons”.

With `O=C(O)c1cc(SSc2ccc([N+](=O)[O-])c(C(=O)O)c2)ccc1[N+](=O)[O-]` [DTNB] the “DTNB reduction, absorbance at 412 nm” value ([1]; NADPH as electron source) was “in the presence of substrate DTNB is reduced to TNB, with NADPH as a source”.
